Assay results as given in US12630547B2, “RAS protein degraders, pharmaceutical compositions thereof, and their therapeutic applications” (BioTheryX, Inc., priority 2019, dated 2026).

Key:
Type in all cases: cell-based
H358 cells = experiment: Cell viability assay (CELLTITER-GLO), H358 cells; settings: Table 4; 3 days
Method in brief: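 Luminescent ATP read-out (CellTiter-Glo) after 3-day incubation at 37 °C of H358 cells plated at 4,000/well in RPMI 1640 with 10% FBS. Values are either IC50 bins (A ≤1 μM through D >10 μM) or % of DMSO viability at 10 μM or 1 μM, bins A <10% through D ≥50%.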

MOLM-13 cells = experiment: Cell viability assay (CELLTITER-GLO), MOLM-13 cells; settings: Homo sapiens, MOLM-13, 72 h; Table 2; compound at 10 μM, 3 days; read-out: Effect on MOLM-13 cell viability (% DMSO)
Method in brief: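 Viability, as % of DMSO control, was read by CellTiter-Glo luminescence after a 3-day compound exposure (single dose of 10 μM or 1 μM) at 37 °C. Cells plated at 4,000/well in RPMI 1640 with 10% FBS. Results reported as categories A <10%, B 10–<25%, C 25–<50%, D ≥50%.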

H23 cells = experiment: Cell viability assay (CELLTITER-GLO), H23 cells; settings: Table 4; 3 days
Method in brief: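 Luminescent CellTiter-Glo readout after 3-day compound treatment (37° C, 5% CO2) of H23 cells plated at 4,000 cells/well in RPMI 1640 plus 10% FBS, DMSO as control. IC50 values given as categorical ranges.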

Row | SMILES | Inhibition of H358 cells, IC50 (class) (H358 cells) | viability at 10 µM (MOLM-13 cells) | Inhibition of H23 cells, IC50 (class) (H23 cells)
1 | C=CC(=O)N1CC(N2Cc3ccc(-c4cc(O)cc5ccccc45)cc3N(CCOCCOCCNc3cccc4c3C(=O)N(C3CCC(=O)NC3=O)C4=O)C2=O)C1 (stereo not drawn) [Compound 45, 4-((2-(2-(2-(3-(1-Acryloylazetidin-3-yl)-7-(3-hydroxynaphthalen-1-yl)-2-oxo-3,4-dihydroquinazolin-1(2H)-yl)ethoxy)ethoxy)ethyl)amino)-2-(2,6-dioxopiperidin-3-yl)isoindoline-1,3-dione] | C′ | ≥ 50% | B′
2 | CCC(=O)N1CC(N2Cc3ccc(-c4cc(O)cc5ccccc45)cc3N(CCNCCCCCCCN3CCC(c4cc(F)cc5c4CN(C4CCC(=O)NC4=O)C5=O)CC3)C2=O)C1 (stereo not drawn) [Compound 46, 3-(6-Fluoro-4-(1-(7-((2-(7-(3-hydroxynaphthalen-1-yl)-2-oxo-3-(1-propionylazetidin-3-yl)-3,4-dihydroquinazolin-1(2H)-yl)ethyl)amino)heptyl)piperidin-4-yl)-1-oxoisoindolin-2-yl)piperidine-2,6-dione] | D′ | ≥ 50% | D′
3 | C=CC(=O)N1C[C@H](C)N(c2nc(OCCOCCOCCOCCNc3cccc4c3C(=O)N(C3CCC(=O)NC3=O)C4=O)nc3c(F)c(-c4c(O)cccc4F)c(Cl)cc23)C[C@H]1C (stereo partly drawn) [Compound 58, 4-((2-(2-(2-(2-((4-((2S,5R)-4-Acryloyl-2,5-dimethylpiperazin-1-yl)-6-chloro-8-fluoro-7-(2-fluoro-6-hydroxyphenyl)quinazolin-2-yl)oxy)ethoxy)ethoxy)ethoxy)ethyl)amino)-2-(2,6-dioxopiperidin-3-yl)isoindoline-1,3-dione] | B′ | < 10% | B′
4 | CCS(=O)(=O)N1CCN(c2ncnc3c(F)c(-c4c(F)cccc4OCCCCCCCN4CCC(c5cc(F)cc6c5CN(C5CCC(=O)NC5=O)C6=O)CC4)c(Cl)cc23)CC1 (stereo not drawn) [Compound 59, 3-(4-(1-(7-(2-(6-Chloro-4-(4-(ethylsulfonyl)piperazin-1-yl)-8-fluoroquinazolin-7-yl)-3-fluorophenoxy)heptyl)piperidin-4-yl)-6-fluoro-1-oxoisoindolin-2-yl)piperidine-2,6-dione] | B′ | < 10% | B′
5 | CCC(=O)N1CCN(c2ncnc3c(F)c(-c4c(F)cccc4OCCCCCCCCCN4CCC(c5cc(F)cc6c5CN(C5CCC(=O)NC5=O)C6=O)CC4)c(Cl)cc23)CC1 (stereo not drawn) [Compound 61, 3-(4-(1-(9-(2-(6-Chloro-8-fluoro-4-(4-propionylpiperazin-1-yl)quinazolin-7-yl)-3-fluorophenoxy)nonyl)piperidin-4-yl)-6-fluoro-1-oxoisoindolin-2-yl)piperidine-2,6-dione] | B′ | < 10% | B′
6 | C=CC(=O)N1CCN(c2ncnc3c(F)c(-c4c(F)cccc4OCCCNCc4ccc(COc5cccc6c5CN([C@H]5CCC(=O)NC5=O)C6=O)cc4)c(Cl)cc23)CC1 [Compound 62, (3S)-3-(4-((4-(((3-(2-(4-(4-Acryloylpiperazin-1-yl)-6-chloro-8-fluoroquinazolin-7-yl)-3-fluorophenoxy)propyl)amino)methyl)benzyl)oxy)-1-oxoisoindolin-2-yl)piperidine-2,6-dione] | B′ | < 10% | B′
